The subject of the experiment is 935938-334-R-J1-PDC spheroids with HUVEC/MSC, viability. In words: Anticancer human tumor 935938-334-R-J1-PDC patient-derived small intestine adenocarcinoma cell line growth inhibition [PI3K]. The note with it: for viability, T/C: stronger effect = lower value. In short, it runs like this:
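Spheroid viability read-out. Co-cultures contained the tumor line plus HUVEC and human MSCs. Each agent was paired with a PI3K inhibitor (inavolisib, alpelisib, duvelisib, copanlisib) across half-log dilutions starting at clinical Cmax, or at 10 microM when Cmax was unknown.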

The mark [1] stands for this setting: curve of first compound, second compound 0.00316 µM.
Setting [2] is: curve of first compound, second compound 0.01 µM.
The mark [3] stands for this setting: curve of first compound, second compound 0.0316 µM.
The mark [4] stands for this setting: curve of first compound, second compound 0.1 µM.
The mark [5] stands for this setting: curve of first compound, second compound 0.316 µM.
Where [6] appears, read: curve of first compound, second compound 1 µM.
Setting [7] is: second compound 0.00316 µM, first compound 0.0316 µM.
The mark [8] stands for this setting: second compound 0.00316 µM, first compound 0.1 µM.
Setting [9] is: second compound 0.00316 µM, first compound 0.316 µM.
The mark [10] stands for this setting: second compound 0.00316 µM, first compound 1 µM.
Setting [11] is: second compound 0.00316 µM, first compound 3.16 µM.
The mark [12] stands for this setting: second compound 0.00316 µM, first compound 10 µM.
[13] abbreviates: second compound 0.01 µM, first compound 0.0316 µM.
The mark [14] stands for this setting: second compound 0.01 µM, first compound 0.1 µM.
[15] abbreviates: second compound 0.01 µM, first compound 0.316 µM.
Where [16] appears, read: second compound 0.01 µM, first compound 1 µM.
The mark [17] stands for this setting: second compound 0.01 µM, first compound 3.16 µM.
The mark [18] stands for this setting: second compound 0.01 µM, first compound 10 µM.
Where [19] appears, read: second compound 0.0316 µM, first compound 0.0316 µM.
Setting [20] is: second compound 0.0316 µM, first compound 0.1 µM.
[21] abbreviates: second compound 0.0316 µM, first compound 0.316 µM.
The mark [22] stands for this setting: second compound 0.0316 µM, first compound 1 µM.
Setting [23] is: second compound 0.0316 µM, first compound 3.16 µM.
The mark [24] stands for this setting: second compound 0.0316 µM, first compound 10 µM.
The mark [25] stands for this setting: second compound 0.1 µM, first compound 0.0316 µM.
Setting [26] is: second compound 0.1 µM, first compound 0.1 µM.
[27] abbreviates: second compound 0.1 µM, first compound 0.316 µM.
Setting [28] is: second compound 0.1 µM, first compound 1 µM.
The mark [29] stands for this setting: second compound 0.1 µM, first compound 3.16 µM.
The mark [30] stands for this setting: second compound 0.1 µM, first compound 10 µM.
Where [31] appears, read: second compound 0.316 µM, first compound 0.0316 µM.
[32] abbreviates: second compound 0.316 µM, first compound 0.1 µM.
[33] abbreviates: second compound 0.316 µM, first compound 0.316 µM.
The mark [34] stands for this setting: second compound 0.316 µM, first compound 1 µM.
Setting [35] is: second compound 0.316 µM, first compound 3.16 µM.
The mark [36] stands for this setting: second compound 0.316 µM, first compound 10 µM.
[37] abbreviates: second compound 1 µM, first compound 0.0316 µM.
[38] abbreviates: second compound 1 µM, first compound 0.1 µM.
Setting [39] is: second compound 1 µM, first compound 0.316 µM.
Setting [40] is: second compound 1 µM, first compound 1 µM.
Where [41] appears, read: second compound 1 µM, first compound 3.16 µM.
The mark [42] stands for this setting: second compound 1 µM, first compound 10 µM.

“And” between values parts separate entries of the source, which are not always exact repeats. Equal entries are not always repeated.
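Note: compound exposure lasted seven days before viability was read.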
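Throughout, for viability, T/C: percent of vehicle DMSO treated spheroid viability so 100% = untreated.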

The term IC50 denotes the point on the concentration scale where inhibition reaches its midpoint. For orientation: viability, T/C means the ratio of treated to control. In the case of `CC1(C)CCC(Nc2ncc(C(F)(F)F)c(-c3c[nH]c4c(P(C)(C)=O)c(C#N)ccc34)n2)CN1` (stereo not drawn) + CC(Nc1ccc2c(c1)OCCn1cc(N3C(=O)OCC3C(F)F)nc1-2)C(N)=O, the IC50 reads like this: under setting [1], below 31.6 nM; under setting [2], below 31.6 nM; under setting [3], below 31.6 nM; under setting [4], below 31.6 nM; under setting [5], below 31.6 nM; under setting [6], below 31.6 nM. For the same molecule, the viability, T/C runs as follows: under setting [7], 46.2%; under setting [8], 35%; under setting [9], 29.9%; under setting [10], 33.8%; under setting [11], 25.8%; under setting [12], 7.62%. Also, the viability, T/C was 42.7% under setting [13]; 36.3% under setting [14]; 27.2% under setting [15]; 28.6% under setting [16]; 30.4% under setting [17]; 5.01% under setting [18]. In addition, the viability, T/C under setting [19] is 42.5%; the viability, T/C under setting [20] was 40.5%; the viability, T/C under setting [21] is 33.8%; the viability, T/C under setting [22] was 27.1%; the viability, T/C under setting [23] is 35.5%; the viability, T/C under setting [24] is 6.2%. Also, the viability, T/C runs as follows: under setting [25], 36.8%; under setting [26], 39.5%; under setting [27], 30%; under setting [28], 29.6%; under setting [29], 31.3%; under setting [30], 4.61%. In addition, the viability, T/C was 37.5% under setting [31]; 29.5% under setting [32]; 27.2% under setting [33]; 29.2% under setting [34]; 23.1% under setting [35]; 6.76% under setting [36]. In addition, the viability, T/C runs as follows: under setting [37], 29.5%; under setting [38], 24%; under setting [39], 24.7%; under setting [40], 22.9%; under setting [41], 18.3%; under setting [42], 3.56%.
Consider `CCCS(=O)(=O)Nc1ccc(F)c(C(=O)c2c[nH]c3ncc(-c4ccc(Cl)cc4)cc23)c1F`, for which the viability, T/C is, setting by setting: (compound 0.0316 µM) 98.8% [middle of 4 runs]; (compound 0.1 µM) 111% [middle of 4 runs]; (compound 0.316 µM) 108% [middle of 4 runs]; (compound 3.16 µM) 110% [middle of 4 runs]; (compound 10 µM) 31% [middle of 4 runs]. The half-maximal inhibitory concentration (IC50) (curve of compound) was 7.38 µM [middle of 4 runs].
For the molecule `C[C@@H](NC(=O)c1ncnc(N)c1Cl)c1ncc(C(=O)Nc2cc(C(F)(F)F)c(Cl)cn2)s1` + COc1c(OCCCN2CCOCC2)ccc2c3n(c(=NC(=O)c4cnc(N)nc4)nc12)CCN3, the IC50 by setting is: under setting [1], above 10000 nM; under setting [2], above 10000 nM; under setting [3], above 10000 nM; under setting [4], 6990 nM; under setting [5], below 31.6 nM; under setting [6], below 31.6 nM. Moreover, the viability, T/C reads like this: under setting [7], 124%; under setting [8], 105%; under setting [9], 116%; under setting [10], 108%; under setting [11], 123%; under setting [12], 82.3%. Also, the viability, T/C runs as follows: under setting [13], 104%; under setting [14], 122%; under setting [15], 115%; under setting [16], 117%; under setting [17], 101%; under setting [18], 90%. Besides, the viability, T/C was 81.3% under setting [19]; 94.4% under setting [20]; 96.2% under setting [21]; 85.4% under setting [22]; 76.3% under setting [23]; 69.9% under setting [24]. In addition, the viability, T/C under setting [25] is 67.5%; the viability, T/C under setting [26] was 65.7%; the viability, T/C under setting [27] was 73.2%; the viability, T/C under setting [28] is 71.2%; the viability, T/C under setting [29] is 60.8%; the viability, T/C under setting [30] was 44.5%. Further, the viability, T/C under setting [31] was 46.3%; the viability, T/C under setting [32] was 42.1%; the viability, T/C under setting [33] is 38.9%; the viability, T/C under setting [34] was 41.8%; the viability, T/C under setting [35] was 40.1%; the viability, T/C under setting [36] was 42.9%. The viability, T/C by setting is: under setting [37], 36.8%; under setting [38], 41.3%; under setting [39], 40.8%; under setting [40], 37.3%; under setting [41], 37.5%; under setting [42], 34.7%.
Regarding `CCN1CCN(Cc2ccc(Nc3ncc(F)c(-c4cc(F)c5nc(C)n(C(C)C)c5c4)n3)nc2)CC1`, the viability, T/C reads like this: (compound 0.01 µM) 89.4% [middle of 4 runs]; (compound 0.316 µM) 49.4% [middle of 4 runs]. Also, for the setting “curve of compound”, the IC50 was 269 nM [middle of 4 runs].
As to `Cn1ncc(Cl)c1-c1cc(C(=O)NC(CN)Cc2cccc(F)c2)sc1Cl` (stereo not drawn), the viability, T/C by setting is: (compound 0.1 µM) 84.4% [middle of 4 runs]; (compound 0.316 µM) 71.1% [middle of 4 runs]; (compound 1 µM) 60.5% [middle of 4 runs]; (compound 3.16 µM) 49.1% [middle of 4 runs]. In addition, under “curve of compound”, the IC50 is > 10000 nM and 1850 nM.

Values taken from PubChem BioAssay AID1963966 (Molecular Pharmacology Branch, DTP, NCI, 2024).
